Experimental data as given in DBAASP.
In brackets after ≈: the same amount, converted by molar mass. Several values for one entry are separate records, joined by “and”; a condition that tells them apart may be missing. Equal entries are not always repeated.

Columns and labels:
Assay in all cases: ≥ marks a high value that may be exact or a test limit, other limits are often not marked, values filed in µg/mL are converted to µM
[1] = test system: Mycobacterium tuberculosis H37Rv
[2] = test system: Escherichia coli ATCC 25922
[3] = test system: Batrachochytrium dendrobatidis
[4] = test system: Staphylococcus aureus FDA 209P
[5] = test system: Escherichia coli ML-35
[6] = test system: Staphylococcus aureus ATCC 25923
[7] = test system: Salmonella enterica subsp. enterica serovar Typhimurium ATCC 14028
[8] = test system: Pseudomonas aeruginosa ATCC 27853
[9] = test system: Bacillus megaterium
[10] = test system: Bacillus subtilis ATCC 6633
[11] = test system: Escherichia coli ATCC 10536
[12] = test system: Pseudomonas aeruginosa ATCC BAA-427
[13] = test system: Staphylococcus aureus ATCC 33591
[14] = test system: Cryptococcus gattii ATCC 32608
[15] = test system: Acinetobacter baumannii ATCC 19606
[16] = test system: Staphylococcus epidermidis ATCC 12228
[17] = test system: Cryptococcus neoformans ATCC 24067
[18] = test system: Candida krusei ATCC 20029
[19] = test system: Pseudomonas aeruginosa KCTC 1637
[20] = test system: Bacillus subtilis KCTC 1918
[21] = test system: Staphylococcus epidermidis KCTC 3096
[22] = test system: Salmonella typhimurium KCTC 1926
[23] = test system: Candida albicans TIMM 1768
[24] = test system: Trichosporon beigelii KCTC 7707
[25] = test system: Escherichia coli HB101
[26] = test system: Escherichia coli TOP 10
[27] = test system: Serratia marcescens ATCC 8100
[28] = test system: Escherichia coli BW25113 ΔsbmA
[29] = test system: Escherichia coli BW25113
[30] = test system: Pseudomonas aeruginosa ATCC 9027
[31] = test system: Escherichia coli ATCC 8739
[32] = test system: Staphylococcus aureus ATCC 6538
[33] = test system: Candida albicans ATCC 64550

## CC[C@H](C)[C@H](NC(=O)[C@@H]1CCCN1C(=O)[C@H](CCCN=C(N)N)NC(=O)CNC(=O)[C@H](C)NC(=O)[C@H](CCCN=C(N)N)NC(=O)[C@H](Cc1cnc[nH]1)NC(=O)[C@H](C)NC(=O)[C@H](C)N)C(=O)N[C@@H](Cc1cnc[nH]1)C(=O)N[C@@H](CC(=O)O)C(=O)N[C@@H](C)C(=O)NCC(=O)N[C@H](C(=O)N[C@H](C(=O)N[C@@H](CCCCN)C(=O)N[C@@H](CCC(N)=O)C(=O)O)C(C)C)C(C)C [AAHRAGRPIHDAGVVKQ]
[1]
  MIC: ≥ 112 µM

## CC[C@H](C)[C@H](NC(=O)CN)C(=O)N[C@@H](Cc1ccccc1)C(=O)N[C@@H](CO)C(=O)N[C@@H](CCCCN)C(=O)N[C@@H](CC(C)C)C(=O)N[C@@H](C)C(=O)NCC(=O)N[C@@H](CCCCN)C(=O)N[C@@H](CCCCN)C(=O)N[C@H](C(=O)N[C@@H](CCCCN)C(=O)N[C@@H](CC(N)=O)C(=O)N[C@@H](CC(C)C)C(=O)N[C@@H](CC(C)C)C(=O)N[C@H](C(=O)N[C@@H](CO)C(=O)NCC(=O)N[C@@H](CC(C)C)C(=O)N[C@@H](CCCCN)C(=O)N[C@@H](CC(N)=O)C(=O)N[C@H](C(=O)NCC(=O)N[C@@H](CCCCN)C(=O)N[C@@H](CCC(=O)O)C(=O)N[C@H](C(=O)NCC(=O)N[C@@H](CCSC)C(=O)N[C@@H](CC(=O)O)C(=O)N[C@H](C(=O)N[C@H](C(=O)N[C@@H](CCCN=C(N)N)C(=O)N[C@H](C(=O)NCC(=O)N[C@H](C(=O)N[C@@H](CC(=O)O)C(=O)N[C@H](C(=O)N[C@@H](C)C(=O)NCC(=O)N[C@H]1CSSC[C@@H](C(=O)O)NC(=O)[C@H](CCC(=O)O)NC(=O)CNC(=O)[C@H](CCCCN)NC(=O)[C@H]([C@@H](C)CC)NC(=O)[C@H](CCCCN)NC1=O)[C@@H](C)CC)[C@@H](C)CC)[C@@H](C)O)C(C)C)C(C)C)C(C)C)C(C)C)[C@@H](C)CC)[C@@H](C)CC [GIFSKLAGKKIKNLLISGLKNVGKEVGMDVVRTGIDIAGCKIKGEC]
[2]
  MIC: 2.8 µM (≈ 13.4 µg/mL)
[3]
  MIC: 25 µM and 12.5 µM
[4]
  MIC: 4.3 µM (≈ 20.6 µg/mL)

## CC[C@H](C)[C@H](NC(=O)[C@H](CCCCN)NC(=O)[C@H](CCCCN)NC(=O)[C@H](CC(C)C)NC(=O)[C@H](CCCCN)NC(=O)[C@H](CCC(=O)O)NC(=O)[C@H](CCCCN)NC(=O)[C@@H](NC(=O)[C@H](CCCCN)NC(=O)[C@H](CC(N)=O)NC(=O)[C@H](CCCN=C(N)N)NC(=O)[C@H](C)NC(=O)[C@H](CCCCN)NC(=O)[C@H](CCCN=C(N)N)NC(=O)[C@H](CC(C)C)NC(=O)[C@H](CCCN=C(N)N)NC(=O)[C@H](CCCCN)NC(=O)[C@H](CCCN=C(N)N)NC(=O)[C@H](CC(C)C)NC(=O)CN)[C@@H](C)CC)C(=O)O [GLRKRLRKARNKIKEKLKKI]
[2]
  MIC: 4 µM (≈ 9.91 µg/mL)
[5]
  MIC: 4 µM (≈ 9.91 µg/mL)
[6]
  MIC: 8 µM (≈ 19.8 µg/mL)
[7]
  MIC: 16 µM (≈ 39.6 µg/mL)
[8]
  MIC: 1 µM (≈ 2.48 µg/mL)
[9]
  MIC: 8 µM (≈ 19.8 µg/mL)

## CC[C@H](C)[C@H](N)C(=O)N[C@@H](CC(C)C)C(=O)NCC(=O)N[C@@H](CCCCN)C(=O)N[C@H](C(=O)N[C@@H](Cc1c[nH]c2ccccc12)C(=O)N[C@@H](CCC(=O)O)C(=O)NCC(=O)N[C@@H](CCCCN)C(=O)N[C@@H](CCCCN)C(=O)N[C@@H](CO)C(=O)N[C@@H](CC(C)C)C(=O)N[C@@H](Cc1ccccc1)C(N)=O)[C@@H](C)CC [ILGKIWEGKKSLF]
[10]
  MIC: 2 µM (≈ 3.04 µg/mL)
[2]
  MIC: 8 µM (≈ 12.1 µg/mL)
[11]
  MIC: 4 µM (≈ 6.07 µg/mL)
[12]
  MIC: 8 µM (≈ 12.1 µg/mL)
[6]
  MIC: 8 µM (≈ 12.1 µg/mL)

## CC[C@H](C)[C@H](N)C(=O)N[C@@H](Cc1c[nH]c2ccccc12)C(=O)N[C@@H](CC(C)C)C(=O)N[C@H](C(=O)N[C@@H](C)C(=O)N[C@@H](CC(C)C)C(=O)N[C@@H](CCCCN)C(=O)N[C@@H](Cc1ccccc1)C(=O)N[C@@H](CC(C)C)C(=O)NCC(=O)N[C@@H](CCCCN)C(=O)N[C@@H](CC(N)=O)C(=O)N[C@@H](CC(C)C)C(=O)NCC(=O)N[C@@H](CCCCN)C(N)=O)[C@@H](C)O [IWLTALKFLGKNLGK]
[13]
  MIC: 4.7 µM (≈ 8 µg/mL)
[14]
  MIC: 3.73 µM (≈ 6.35 µg/mL)
[2]
  MIC: 14.9 µM (≈ 25.4 µg/mL)
[15]
  MIC: 5.27 µM (≈ 8.97 µg/mL)
[16]
  MIC: 4.18 µM (≈ 7.11 µg/mL)
[17]
  MIC: 14.9 µM (≈ 25.4 µg/mL)
[18]
  MIC: ≥ 37.6 µM
[8]
  MIC: 37.6 µM (≈ 64 µg/mL)

## CC[C@H](C)[C@H](NC(=O)CNC(=O)[C@@H](NC(=O)[C@H](CCCCN)NC(=O)[C@H](CCCCN)NC(=O)[C@H](Cc1ccccc1)NC(=O)[C@H](CC(C)C)NC(=O)[C@H](CCCCN)NC(=O)[C@H](Cc1c[nH]c2ccccc12)NC(=O)[C@H](CCCCN)NC(=O)[C@H](CCCCN)NC(=O)[C@H](CCCCN)NC(=O)[C@@H](N)CCCCN)[C@@H](C)CC)C(=O)NCC(=O)N[C@@H](CCCCN)C(=O)N[C@@H](Cc1ccccc1)C(=O)N[C@@H](CC(C)C)C(N)=O [KKKKWKLFKKIGIGKFL]
[19]
  MIC: 1.56 µM (≈ 3.26 µg/mL)
[20]
  MIC: 3.12 µM (≈ 6.52 µg/mL)
[21]
  MIC: 3.12 µM (≈ 6.52 µg/mL)
[22]
  MIC: 0.19 µM (≈ 0.397 µg/mL)
[23]
  MIC: 12.5 µM (≈ 26.1 µg/mL)
[24]
  MIC: 6.25 µM (≈ 13.1 µg/mL)

## CC[C@H](C)[C@H](NC(=O)[C@H](CCCN=C(N)N)NC(=O)[C@@H](N)CCCN=C(N)N)C(=O)N[C@@H](CCCN=C(N)N)C(=O)N1CCC[C@H]1C(=O)N[C@@H](CCCN=C(N)N)C(=O)N1CCC[C@H]1C(=O)N1CCC[C@H]1C(=O)N[C@@H](CCCN=C(N)N)C(=O)N[C@@H](CC(C)C)C(=O)N1CCC[C@H]1C(=O)N[C@@H](CCCN=C(N)N)C(=O)N1CCC[C@H]1C(=O)N[C@@H](CCCN=C(N)N)C(=O)N1CCC[C@H]1C(=O)N[C@@H](CCCN=C(N)N)C(=O)N1CCC[C@H]1C(=O)N[C@@H](CC(C)C)C(=O)N1CCC[C@H]1C(=O)N[C@@H](Cc1ccccc1)C(=O)N1CCC[C@H]1C(=O)N[C@@H](CCCN=C(N)N)C(=O)N1CCC[C@H]1C(=O)O [RRIRPRPPRLPRPRPRPLPFPRP]
[25]
  MIC: 0.5 µM (≈ 1.44 µg/mL)
[5]
  MIC: 1 µM (≈ 2.88 µg/mL)
[6]
  MIC: > 128 µM
[26]
  MIC: 4.6 µM (≈ 13.3 µg/mL)
[27]
  MIC: 4 µM (≈ 11.5 µg/mL)
[7]
  MIC: 2 µM (≈ 5.76 µg/mL)
[28]
  MIC: ≥ 52.1 µM
[29]
  MIC: 7.4 µM (≈ 21.3 µg/mL)

## NCCCC[C@H](NC(=O)[C@H](Cc1c[nH]c2ccccc12)NC(=O)[C@H](Cc1ccccc1)NC(=O)[C@@H](N)Cc1c[nH]c2ccccc12)C(=O)N[C@@H](Cc1c[nH]c2ccccc12)C(=O)N[C@@H](Cc1c[nH]c2ccccc12)C(=O)N[C@@H](CCCN=C(N)N)C(=O)N[C@@H](CCCN=C(N)N)C(=O)N[C@@H](CCCN=C(N)N)C(=O)N[C@@H](CCCN=C(N)N)C(=O)N[C@@H](CCCN=C(N)N)C(N)=O [WFWKWWRRRRR]
[30]
  MIC: 4.6 µM (≈ 8.36 µg/mL)
[31]
  MIC: 3.1 µM (≈ 5.64 µg/mL)
[32]
  MIC: 1.7 µM (≈ 3.09 µg/mL)
[33]
  MIC: ≥ 100 µM

## C[C@H](NC(=O)[C@H](Cc1c[nH]c2ccccc12)NC(=O)[C@H](CCCN=C(N)N)NC(=O)[C@@H](N)Cc1ccc(O)cc1)C(=O)N[C@@H](CCCN=C(N)N)C(=O)N[C@@H](Cc1c[nH]c2ccccc12)C(=O)N[C@@H](Cc1c[nH]c2ccccc12)C(=O)N[C@@H](CCCN=C(N)N)C(=O)N[C@@H](CCCN=C(N)N)C(N)=O [YRWARWWRR]
[2]
  MIC: 6.97 µM and 5.22 µM
[6]
  MIC: 3.48 µM (≈ 5 µg/mL)
[8]
  MIC: 3.48 µM (≈ 5 µg/mL)
[33]
  MIC: ≥ 100 µM
